# Measured values published in PubChem BioAssay AID1259407 (Chemical Carcinogenesis Research Information System (CCRIS), 2018).
# Activity calls are given as the source filed them. The rule behind the calls is not given here.
# Tested on: CCRIS mutagenicity, Ames/micronucleus/aberration tests
# Experiment: CCRIS mutagenicity studies
# Details: Test System: AMES SALMONELLA TYPHIMURIUM
# [1] = Strain/Indicator: TA98, Metabolic Activation: NONE, Method: PREINCUBATION
# [2] = Strain/Indicator: TA100, Metabolic Activation: NONE, Method: PREINCUBATION
smiles,measurement,setting,value
Nc1ccnc2ccccc12,mutagenic call,[1],inactive; negative
same,mutagenic call,"Strain/Indicator: TA98, Metabolic Activation: RAT, LIVER, S-9, KANECHLOR 500 OR PHENOBARBITAL AND BETA-NAPHTHOFLAVONE, Method: PREINCUBATION",inactive; negative
same,mutagenic call,[2],inactive; negative
same,mutagenic call,"Strain/Indicator: TA100, Metabolic Activation: RAT, LIVER, S-9, KANECHLOR 500 OR PHENOBARBITAL AND BETA-NAPHTHOFLAVONE, Method: PREINCUBATION",inactive; negative
CC(=O)Nc1ccc(Sc2ccccc2)cc1,mutagenic call,"Strain/Indicator: TA98, Metabolic Activation: NONE, Method: STANDARD PLATE",inactive; negative
same,mutagenic call,"Strain/Indicator: TA98, Metabolic Activation: RAT, LIVER, S-9, AROCLOR 1254, Method: STANDARD PLATE",active; positive
C1CCNC1,mutagenic call,[1],inactive; negative
same,mutagenic call,"Strain/Indicator: TA98, Metabolic Activation: RAT, LIVER, S-9, PCB, Method: PREINCUBATION",inactive; negative
same,mutagenic call,[2],inactive; negative
same,mutagenic call,"Strain/Indicator: TA100, Metabolic Activation: RAT, LIVER, S-9, PCB, Method: PREINCUBATION",inactive; negative
CNc1ccc2ncc(C)nc2c1N,mutagenic call,[1],inactive; negative
same,mutagenic call,"Strain/Indicator: TA98, Metabolic Activation: RAT, LIVER, S-9, AROCLOR 1254, Method: PREINCUBATION",inactive; negative
same,mutagenic call,[2],inactive; negative
same,mutagenic call,"Strain/Indicator: TA100, Metabolic Activation: RAT, LIVER, S-9, AROCLOR 1254, Method: PREINCUBATION",inactive; negative
O=C1OCC(Br)=C1Br,mutagenic call,"Strain/Indicator: TA100, Metabolic Activation: NONE, Method: STANDARD PLATE",active; positive
